{
  "source": "paper PMC9644404",
  "about": "“Mechanistic Insights into the Activation of Lecithin–Cholesterol Acyltransferase in Therapeutic Nanodiscs Composed of Apolipoprotein A-I Mimetic Peptides and Phospholipids” (Molecular Pharmaceutics, 2022)",
  "key": {"[1]": {"system": "recombinant human lecithin cholesterol acyltransferase (LCAT)", "test": "LCAT activity assay (DHE esterification in DMPC/DHE/peptide nanodiscs)", "format": "biochemical", "details": "relative to 22A, 30 min; for LCAT activity (in words): pH 7.4, 37 °C, fluorescence", "source_text": "(§1) ApoA-I mimetic peptides 22A ([…]), 22A-K22Q ([…]), and 22A-R7Q ([…]) were obtained from Peptide Protein Research Ltd. (Fareham, UK). 1,2-Dimyristoyl-sn-glycerol-3-phosphocholine (DMPC), 1,2-dipalmitoyl-sn-glycerol-3-phosphocholine (DPPC), and ergosta-5,7,9,(11),22-tetra-3beta-ol (dehydroergosterol, DHE) were purchased from Avanti Polar Lipids Inc. (Alabaster, AL). Recombinant human lecithin cholesterol acyltransferase (LCAT) was synthesized by ProSpec-Tany TechnoGene Ltd. (East Brunswick, NJ). Cholesterol oxidase (COx) was obtained from Sigma-Aldrich (St. Louis, MO).\nThe LCAT activity assay relies on the integration of DHE in the nanodisc structure as a substrate for LCAT. DHE is a naturally occurring fluorescent sterol analog; the presence of three conjugated double bonds in the steroid ring system gives this probe a slight fluorescence in the near-UV region of the spectrum.[42] As a consequence of the acyltransferase activity of LCAT, DHE in the PL bilayer is stored in the inner core of sHDL as DHE-ester. The esterification of DHE causes a shift in the sterol analog emission wavelength from 372 to 425 nm; this shift, together with the use of COx, which selectively renders the unesterified DHE nonfluorescent, allows the exclusive detection and quantification of the DHE-ester. This provides information about the LCAT–sHDL interaction and activity.[43],[44] sHDL containing the fluorescent sterol DHE for LCAT activity assay was prepared via thermal cycling method. In a glass vial, DMPC and DHE in chloroform were combined at a 9:1 molar ratio and were first dried with Rotavapor R-200 at room temperature for 1–2 h and then an additional 1 h under nitrogen flow at room temperature. […] After this, the plates went through a second round of incubation at 37 °C with gentle shaking (250 rpm/h) for 1 h to extinguish the fluorescence of unesterified DHE. After re-equilibrating the plate at room temperature, DHE fluorescence was detected at an excitation wavelength of 325 nm and an emission wavelength of 425 nm using Varioskan LUX (Thermo Scientific, Waltham, MA). […]"}, "LCAT [2]": {"system": "LCAT", "test": "QCM: LCAT binding to peptide-lipid nanodiscs on sensor", "parameters": "species or system human", "details": "for adsorption of LCAT on the discs (in words): 10 nM LCAT in PBS, 20 °C, versus 22A; for estimated number of LCAT enzymes bound per disc: calculated from adsorbed mass after LCAT injection (10 nM LCAT in PBS, 75 μL/min, 17 min, 20 °C), DMPC nanodiscs, three measurements", "source_text": "as §1\nBefore QCM measurements, the LCAT stock solution was prepared by dissolving 10 μg of LCAT in 500 μL of PBS. The solution was centrifuged (14 000g) twice through Amicon Ultra-0.5, 10 kDa cutoff filter (Sigma-Aldrich) for buffer exchange and purification. The retentate was diluted to a total volume of 500 μL (PBS) after each step. Prepared 20 μg/mL (∼430 nM) LCAT solution was stored in −20 °C before further use.\n(§2) Impedance-based QCM instrument QCM-Z500 (KSV Instruments Ltd., Helsinki, Finland) was used for the measurements. The temperature was kept constant at 20 °C. Before measurements, silica-coated sensors (Q-Sense Inc./Biolin Scientific, Västra Frölunda, Sweden) were flushed with 70% (v/v) ethanol and ultrapure water, dried under nitrogen flow, and oxygen-plasma-treated (PDC-002; Harrick Plasma, Ithaca, NY) for 5 min at 29.6 W and 133–173 Pa. Samples were injected into the flow channel using a peristaltic pump system. After the baseline of the signal at different frequency overtones (3, 5, and 7) was stabilized in PBS, a nanodisc surface was formed by flowing nanodisc solution (0.15 mg/mL in PBS, 150 μL/min) on the sensor for 5 min, until the signal was again stabilized. Flow speed was then decreased to 75 μL/min for 5 min of flow with PBS to ensure a solid, uniform nanodisc surface. Next, 10 nM (0.47 μg/mL) LCAT was then injected through the flow channel at 75 μL/min for 17 min. Then, the running solution was again changed to PBS to see the frequency signal stabilize. All measurements were performed three times; between measurements, the sensor and the flow channel were cleaned in situ by 3 min sequential injections of 20 mM CHAPS, 2% (v/v) Hellmanex, 70% (v/v) ethanol, and ultrapure water at 150 μL/min. Frequency overtone signals were normalized, baseline corrected, and averaged for each measurement."}, "[3]": {"test": "QCM: adsorption of nanodiscs on silica sensor", "format": "physicochemical", "details": "nanodiscs 0.15 mg/mL in PBS, 150 μL/min, 5 min, 20 °C, versus 22A", "experimental": "as §2, with “Frequency overtone signals were normalized, baseline corrected, and averaged for each measurement.” left out"}, "LCAT [4]": {"system": "LCAT", "details": "cited from earlier work", "source_text": "Therefore, this has long been a sought-after property of synthetic HDL-mimetic nanodiscs and apoA-I mimetic peptides. The nativelike maturation of the nanodiscs by lecithin–cholesterol acyltransferase (LCAT) has been regarded as a desired feature as it would lead to the esterification of free CHOL and the formation of hydrophobic cholesteryl ester (CE)-rich core. […] The ... || To investigate the location, conformation, and dynamics of apoA-Imimetic peptides in nanodiscs in silico, we complexed coarse-grained models of DMPC lipids with models of apoA-Imimetic peptides 22A and 22A-K and simulated the systems up to 80 μs, measured in the effective Martini force field time. To prepare the systems, 200 lipids and 28 peptides were placed randomly into the simulation box, and after a short vacuum simulation to compress them, the systems were solvated. Equilibrated nanodiscs formed rapidly after starting the production runs. The proteolytic removal of C-terminal lysine of 2 ... || (+ 2 further places)"}, "LCAT [5]": {"system": "LCAT", "details": "cited from earlier work", "source_text": "The ... || The formation of acyl intermediate of LCAT requiring the entry of PCs into the active site is another important factor in LCAT activity. […] We have also ...", "remark": "listed apart in the source"}},
  "data": [
    {"sequence": "PVLDLFQELLNELLEALKQKLK [22A-R7Q, 22A variant with charge neutralization of residue R7]", "values": [
      {"measurement": "LCAT activity (in words)", "setting": "[1]", "value": "nearly identical activity with 22A"},
      {"measurement": "adsorption of LCAT on the discs (in words)", "setting": "LCAT [2]", "value": "reduced the adsorption of LCAT on the discs"},
      {"measurement": "estimated number of LCAT enzymes bound per disc", "setting": "LCAT [2]", "value": "one LCAT was attached to every five nanodiscs"},
      {"measurement": "adsorption of nanodiscs on the sensor (in words)", "setting": "[3]", "value": "decreased adsorption of nanodiscs on the sensor"}
    ]},
    {"sequence": "PVLDLFRELLNELLEALKQKL [22A-K, 22A without C-terminal lysine K22]", "values": [
      {"measurement": "decrease of CHOL esterification on removal of K22", "setting": "LCAT [4]; 22A without C-terminal K22 versus 22A", "value": "~60", "unit": "%"},
      {"measurement": "LCAT activation on removal of C-terminal lysine (in words)", "setting": "LCAT [4]; proteolytic removal in serum", "value": "significantly reduces LCAT activation"},
      {"measurement": "effect on phospholipolytic action of LCAT on removal of K22 (in words)", "setting": "LCAT [5]", "value": "no effect on phospholipolytic action mediated by LCAT"}
    ]},
    {"sequence": "PVLDLFRELLNELLEALKQKLK [22A, apoA-I mimetic peptide 22A (Esperion Therapeutics, ESP24218)]", "values": [
      {"measurement": "estimated number of LCAT enzymes bound per disc", "setting": "LCAT [2]", "value": "approximately one LCAT was bound to every two nanodiscs"},
      {"measurement": "LCAT activation (in words)", "setting": "LCAT [4]; versus native apoA-I", "value": "activate LCAT nearly as well as native apoA-I"}
    ]},
    {"sequence": "PVLDLFRELLNELLEALKQKLQ [22A-K22Q, 22A variant with charge neutralization of residue K22]", "values": [
      {"measurement": "decrease of LCAT activity", "setting": "[1]; lipid:peptide 2:1 w/w, DHE 0-35 μM, LCAT 7 μg/mL, PBS + 1 mM EDTA + 60 μM albumin pH 7.4, 37 °C, fluorescence 325/425 nm, triplicate, two independent experiments", "value": 50, "unit": "%"},
      {"measurement": "LCAT activity (in words)", "setting": "[1]", "value": "decreased the LCAT activation potency"},
      {"measurement": "adsorption of LCAT on the discs (in words)", "setting": "LCAT [2]", "value": "reduced the adsorption of LCAT on the discs"},
      {"measurement": "estimated number of LCAT enzymes bound per disc", "setting": "LCAT [2]", "value": "one LCAT was attached to every five nanodiscs"},
      {"measurement": "adsorption of nanodiscs on the sensor (in words)", "setting": "[3]", "value": "decreased adsorption of nanodiscs on the sensor"}
    ]}
  ]
}
